In patent publication US20180037568A1, “MODULATORS OF METHYL MODIFYING ENZYMES, COMPOSITIONS AND USES THEREOF” (Constellation Pharmaceuticals, Inc., priority 2015, published 2018):
Where two headings read alike, the source gives them in different places.

Legend:
[1] = molecular target: T1, PRC2 containing wt EZH2 (Homo sapiens, UniProt Q15910); experiment: EZH2 pep BSA Brij 4.0 LowE (IC50): 3H-SAM incorporation into biotinylated H3 peptide; assay type: biochemical
T1 construct: made in house
Experimental: EZH2 Pep BSA Brij 4.0 LowE (IC50):
Compound potencies were assessed through incorporation of ^3H-SAM into a biotinylated H3 peptide. Specifically, PRC2 containing wt EZH2 (20 pM), (pentameric complexes prepared in-house) was pre-incubated with ^3H-SAM (0.9 μM), 2 μM H3K27me3 activating peptide (H2N-RKQLATKAAR(Kme3)SAPATGGVKKP-amide) and compounds (as 10 point duplicate dose response titrations in DMSO, final assay 0.8% DMSO (v/v)) for 120 min in 50 mM Tris (pH 8.5), 1 mM DTT, 0.07 mM Brij-35, 0.1% BSA, and 0.8% DMSO in a total volume of 12.5 μl. Reaction was initiated with biotinylated H3 substrate peptide (H2N-RKQLATKAAR(Kme1)SAPATGGVKKP-NTPEGBiot) as a 2 μM stock in 12.5 μl of buffer and allowed to react at room temperature for 5 h. Quenching was accomplished by addition of 20 μl of STOP solution (50 mM Tris (pH 8.5), 200 mM EDTA, 2 mM SAH). 35 μl of the quenched solution was transferred to Streptavidin Flashplates, incubated overnight, washed, and read in a TopCount Reader (Perkin Elmer). IC50s were calculated relative to fully active and no enzyme control wells using non-linear least square four parameter fits.

[2] = test system: H3K27me3 mark; experiment: H3K27me3 Alpha Hela Assay (AlphaLISA); assay type: cell-based; conditions: Hela cells, read-out: EZH2 Cell H3K27me3 Alpha HeLa (EC50 K27me3)
Experimental: EC50 Measurements for Inhibitors in HeLa Cell Assays
H3K27me3 Alpha Hela Assay (AlphaLISA). Ten different doses of each test compound (in a series of 3-fold dilutions) were plated in duplicate 384-well tissue culture treated plates (Catalog #781080; Greiner Bio One; Monroe, N.C.). Hela cells grown in culture were trypsinized and counted using a Countess® cell counter (Catalog # C10281; Life Technologies, Grand Island, N.Y.). Cell were diluted to 67,000 cells per mL in 10% DMEM (Catalog #10569-010 Life Technologies, Grand Island, N.Y.) and 15 μL (1,000 cells) were plated into each well using the Biotek MicroFlo™ Select Dispenser (BioTek Instruments, Inc. Vermont, USA),) of the 384-well plate. Plates were incubated at 37° C./5% CO2 for 72 hrs. One of the duplicate plates was processed for HeLa assay and the other for viability.
To the plate processed for AlphaLISA was added 5 μL per well Cell-Histone Lysis buffer (1×) (Catalog # AL009F1 Perkin Elmer; Waltham, Mass.) and the plate was incubated at RT for 30 minutes on a plate shaker with low speed (Model#4625-Q Thermo Scientific; Waltham, Mass.). Then, 10 μL per well Histone Extraction buffer (catalog # AL009F2; Perkin Elmer; Waltham, Mass.) was added and the plate further incubated at RT for 20 min on plate shaker with low speed. To each well was then added 10 μL per well of a 5× mix of anti-K27me3 acceptor beads plus Biotinylated anti-Histone H3 (C-ter) Antibody (diluted to 3 nM final) (Catalog #AL118 Perkin Elmer; Waltham, Mass.). Dilution of the acceptor beads and then anti-Histone H3 was with 1× Histone Detection buffer (Catalog # AL009F3 Perkin Elmer; Waltham, Mass.) which was produced diluted from the 10× stock provided. The plate was sealed with an aluminum plate sealer and incubated at 23° C. for 60 min. We then added 10 μL 5× solution of Streptavidin Donor beads (Catalog #6760002 Perkin Elmer; Waltham, Mass.) (20 μg/mL final in 1× Histone Detection Buffer), sealed the plate with Aluminum plate sealer and incubated at 23° C. for 30 min. The plates were then read using an EnVision-Alpha Reader (model #2104 Perkin Elmer; Waltham, Mass.).
Data from both assays was analyzed using Assay Assistant (Constellation Pharmaceuticals In-house product) and Activity Base (IDBS Ltd, Surrey, UK) template. Data files were imported to Assay Assistant and assay conditions were specified. A unique Analysis ID was created and the data files exported to Activity Base. An analysis template was created on Activity Base to measure dose-dependent inhibition of H3K27me3 mark and cell viability respectively. Readout of DMSO wells were used to normalize the data. Resulting curves were fitted using Activity base software Model 205 (IDBS Ltd, Surrey, UK). The data was checked for quality, validated and integrated in excel format using SARview (IDBS Ltd, Surrey, UK).

[3] = EZH2 pep BSA Brij 4.0 LowE (IC50), 20 pM PRC2 wt EZH2, 0.9 μM 3H-SAM, biotinylated H3 peptide substrate, 2 μM H3K27me3 activating peptide
[4] = read-out: EZH2 pep BSA Brij 4.0 LowE (IC50); 20 pM PRC2 wt EZH2, 0.9 μM 3H-SAM, biotinylated H3 peptide substrate, 2 μM H3K27me3 activating peptide

T1 sequence (Q15910 whole entry): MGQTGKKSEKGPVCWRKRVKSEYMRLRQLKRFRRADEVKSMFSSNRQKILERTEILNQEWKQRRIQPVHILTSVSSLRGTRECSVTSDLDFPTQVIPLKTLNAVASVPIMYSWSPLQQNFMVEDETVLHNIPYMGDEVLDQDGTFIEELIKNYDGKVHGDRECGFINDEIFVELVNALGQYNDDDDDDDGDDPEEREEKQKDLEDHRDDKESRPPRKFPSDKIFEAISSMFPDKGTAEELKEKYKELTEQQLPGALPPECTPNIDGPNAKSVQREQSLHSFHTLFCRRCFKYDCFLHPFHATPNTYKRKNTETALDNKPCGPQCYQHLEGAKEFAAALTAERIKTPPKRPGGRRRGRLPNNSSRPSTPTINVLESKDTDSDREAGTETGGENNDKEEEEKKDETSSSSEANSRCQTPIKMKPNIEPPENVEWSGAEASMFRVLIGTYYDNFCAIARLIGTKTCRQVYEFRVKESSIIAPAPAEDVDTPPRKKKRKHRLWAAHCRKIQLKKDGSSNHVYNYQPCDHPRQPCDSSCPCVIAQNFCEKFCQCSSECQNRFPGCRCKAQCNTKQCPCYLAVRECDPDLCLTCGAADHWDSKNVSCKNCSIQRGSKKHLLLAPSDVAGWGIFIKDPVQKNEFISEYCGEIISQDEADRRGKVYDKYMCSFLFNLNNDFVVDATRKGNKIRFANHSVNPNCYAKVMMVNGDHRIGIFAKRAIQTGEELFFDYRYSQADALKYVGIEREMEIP
T1 sequence (O75530 whole entry partner): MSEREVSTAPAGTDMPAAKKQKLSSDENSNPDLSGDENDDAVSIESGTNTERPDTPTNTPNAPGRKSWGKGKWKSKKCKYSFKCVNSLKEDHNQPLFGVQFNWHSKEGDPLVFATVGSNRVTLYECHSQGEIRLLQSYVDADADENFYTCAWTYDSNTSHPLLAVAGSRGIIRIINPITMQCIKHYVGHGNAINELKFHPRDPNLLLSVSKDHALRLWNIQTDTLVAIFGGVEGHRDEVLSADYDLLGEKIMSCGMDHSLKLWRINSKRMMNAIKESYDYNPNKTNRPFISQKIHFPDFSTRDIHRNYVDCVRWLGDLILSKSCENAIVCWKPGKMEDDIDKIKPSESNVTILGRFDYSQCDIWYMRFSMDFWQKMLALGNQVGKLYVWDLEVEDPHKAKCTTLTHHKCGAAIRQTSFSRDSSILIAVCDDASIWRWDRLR
T1 sequence (Q15022 whole entry partner): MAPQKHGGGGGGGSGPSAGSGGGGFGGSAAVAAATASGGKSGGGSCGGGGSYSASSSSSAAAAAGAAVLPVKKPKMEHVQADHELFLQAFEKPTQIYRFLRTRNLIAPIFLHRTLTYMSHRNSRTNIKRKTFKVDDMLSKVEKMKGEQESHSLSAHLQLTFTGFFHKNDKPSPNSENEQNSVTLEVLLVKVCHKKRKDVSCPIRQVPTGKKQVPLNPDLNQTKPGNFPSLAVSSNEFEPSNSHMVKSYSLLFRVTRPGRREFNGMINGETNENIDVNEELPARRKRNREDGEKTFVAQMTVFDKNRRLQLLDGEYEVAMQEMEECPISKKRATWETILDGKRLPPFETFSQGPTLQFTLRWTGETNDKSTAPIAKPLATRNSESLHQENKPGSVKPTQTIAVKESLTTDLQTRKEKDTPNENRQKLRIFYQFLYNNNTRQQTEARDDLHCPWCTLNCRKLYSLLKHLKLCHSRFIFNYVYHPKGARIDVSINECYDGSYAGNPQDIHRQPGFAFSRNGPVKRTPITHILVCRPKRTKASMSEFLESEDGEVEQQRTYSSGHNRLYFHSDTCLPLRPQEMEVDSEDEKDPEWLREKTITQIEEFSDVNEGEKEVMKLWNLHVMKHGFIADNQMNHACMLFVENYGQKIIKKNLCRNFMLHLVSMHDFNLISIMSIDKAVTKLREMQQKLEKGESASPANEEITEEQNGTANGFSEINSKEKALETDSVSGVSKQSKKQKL
T1 sequence (Q09028 whole entry partner): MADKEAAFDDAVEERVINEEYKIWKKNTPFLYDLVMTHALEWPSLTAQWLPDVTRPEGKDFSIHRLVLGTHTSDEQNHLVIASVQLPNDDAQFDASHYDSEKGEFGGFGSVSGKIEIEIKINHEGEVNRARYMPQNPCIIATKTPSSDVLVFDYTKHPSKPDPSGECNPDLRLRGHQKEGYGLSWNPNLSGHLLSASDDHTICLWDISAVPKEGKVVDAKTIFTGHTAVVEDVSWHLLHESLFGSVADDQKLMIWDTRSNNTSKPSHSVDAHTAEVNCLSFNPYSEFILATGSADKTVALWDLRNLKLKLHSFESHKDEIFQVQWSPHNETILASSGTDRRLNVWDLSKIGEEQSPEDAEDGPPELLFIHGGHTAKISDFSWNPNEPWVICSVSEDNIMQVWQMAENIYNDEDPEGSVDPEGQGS
T1 sequence (Q6ZN18 whole entry partner): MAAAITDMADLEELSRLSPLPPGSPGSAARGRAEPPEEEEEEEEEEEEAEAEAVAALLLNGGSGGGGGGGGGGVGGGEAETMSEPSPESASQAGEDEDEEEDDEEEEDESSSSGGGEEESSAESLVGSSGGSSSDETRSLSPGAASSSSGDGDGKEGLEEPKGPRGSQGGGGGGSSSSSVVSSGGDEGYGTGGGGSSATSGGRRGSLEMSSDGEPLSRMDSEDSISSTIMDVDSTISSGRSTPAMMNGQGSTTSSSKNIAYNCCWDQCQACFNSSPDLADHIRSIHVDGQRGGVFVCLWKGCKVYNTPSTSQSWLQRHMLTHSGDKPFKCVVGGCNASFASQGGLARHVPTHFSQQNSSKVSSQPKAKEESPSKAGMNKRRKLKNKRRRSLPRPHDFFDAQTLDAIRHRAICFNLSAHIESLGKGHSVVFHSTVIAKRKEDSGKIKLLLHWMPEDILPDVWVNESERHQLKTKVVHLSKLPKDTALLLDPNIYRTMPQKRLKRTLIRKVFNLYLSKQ

Compound	IC50 ([1]; 20 pM PRC2 wt EZH2, 0.9 μM 3H-SAM, biotinylated H3 peptide substrate, 2 μM H3K27me3 activating peptide; read-out: EZH2 pep BSA Brij 4.0 LowE (IC50)) [nM]	EC50 ([2]; 72 hrs) [nM]	IC50 [1, 3] [nM]	EC50 ([2]; Homo sapiens, HeLa, 72 h) [nM]	IC50 [1, 4] [nM]
COc1cc(C)[nH]c(=O)c1CNC(=O)c1c(C)n(C(C)C2CCN(C)C(c3ccc(F)cc3)C2)c2ccccc12 (single isomer, unassigned) [Compound 35, 1-(1-(2-(4-fluorophenyl)-1-methylpiperidin-4-yl)ethyl)-N-((4-methoxy-6-methyl-2-oxo-1,2-dihydropyridin-3-yl)methyl)-2-methyl-1H-indole-3-carboxamide]	< 100	< 400	–	–	–
COc1cc(C)[nH]c(=O)c1CNC(=O)c1c(C)n(C(C)C2CCN(CC(F)(F)F)C(C)C2)c2ccccc12 (centres unmarked) [Compound 45]	–	< 400	< 100	–	–
Cc1cc(OC(F)F)c(CNC(=O)c2c(C)n(C(C)C3CCNC(C(F)(F)F)C3)c3ccccc23)c(=O)[nH]1 (centres unmarked) [Compound 7, N-((4-(difluoromethoxy)-6-methyl-2-oxo-1,2-dihydropyridin-3-yl)methyl)-2-methyl-1-(1-(2-(trifluoromethyl)piperidin-4-yl)ethyl)-1H-indole-3-carboxamide]	–	–	< 100	< 400	–
CCC1CC(C(C)n2c(C)c(C(=O)NCc3c(C)cc(C)[nH]c3=O)c3ccccc32)CCN1CC(F)F (centres unmarked) [Compound 71]	–	< 400	–	–	< 100
CCS(=O)(=O)N1CCC(C(C)n2c(C)c(C(=O)NCc3c(OC)cc(C)[nH]c3=O)c3ccccc32)CC1C (centres unmarked) [Compound 91]	–	–	< 100	> 2000	–
Cc1cc(C)c(CNC(=O)c2c(C)n(C(C)C3CCN(C)C(C(F)(F)F)C3)c3ccccc23)c(=O)[nH]1 (single isomer, unassigned) [Compound 26, N-((4,6-dimethyl-2-oxo-1,2-dihydropyridin-3-yl)methyl)-2-methyl-1-(1-(1-methyl-2-(trifluoromethyl)piperidin-4-yl)ethyl)-1H-indole-3-carboxamide]	–	< 400	–	–	< 100
CCCc1cc(C)[nH]c(=O)c1CNC(=O)c1c(C)n(C(C)C2CCNC(C(F)(F)F)C2)c2ccccc12 (centres unmarked) [Compound 6, 2-methyl-N-((6-methyl-2-oxo-4-propyl-1,2-dihydropyridin-3-yl)methyl)-1-(1-(2-(trifluoromethyl)piperidin-4-yl)ethyl)-1H-indole-3-carboxamide]	–	–	< 100	< 400	–
COc1cc(C)[nH]c(=O)c1CNC(=O)c1c(C)n(C(C)C2CCN(C)CC2C(F)(F)F)c2ccccc12 (single isomer, unassigned) [Compound 28, N-((4-methoxy-6-methyl-2-oxo-1,2-dihydropyridin-3-yl)methyl)-2-methyl-1-(1-(1-methyl-3-(trifluoromethyl)piperidin-4-yl)ethyl)-1H-indole-3-carboxamide]	–	> 2000	< 100	–	–
COc1cc(C)[nH]c(=O)c1CNC(=O)c1c(C)n(C(C)C2CCN(CC(C)(F)F)C(C)C2)c2ccccc12 (centres unmarked) [Compound 70]	–	400 to 2000	< 100	–	–
Cc1cc(C)c(CNC(=O)c2c(C)n(C(C)C3CCN(C)C(C(F)(F)F)C3)c3ccccc23)c(=O)[nH]1 (single isomer, unassigned) [Compound 25, N-((4,6-dimethyl-2-oxo-1,2-dihydropyridin-3-yl)methyl)-2-methyl-1-(1-(1-methyl-2-(trifluoromethyl)piperidin-4-yl)ethyl)-1H-indole-3-carboxamide]	–	> 2000	< 100	–	–
COc1cc(C)[nH]c(=O)c1CNC(=O)c1c(C)n(C(C)C2CCNC(CC(F)(F)F)C2)c2ccccc12 (centres unmarked) [Compound 89]	–	400 to 2000	< 100	–	–
COc1cc(C)[nH]c(=O)c1CNC(=O)c1c(C)n(C(C)C2CCN(CC(C)(F)F)C(C)C2)c2ccccc12 (centres unmarked) [Compound 73]	–	< 400	< 100	–	–
Cc1cc(C)c(CNC(=O)c2c(C)n(C(C)C3CCNC(CC(F)(F)F)C3)c3ccccc23)c(=O)[nH]1 (centres unmarked) [Compound 84]	–	–	–	400 to 2000	< 100
COc1cc(C)[nH]c(=O)c1CNC(=O)c1c(C)n(C(C)C2CCNC(CC(F)(F)F)C2)c2ccccc12 (centres unmarked) [Compound 88]	–	> 2000	< 100	–	–
COc1cc(C)[nH]c(=O)c1CNC(=O)c1c(C)n(C(C)C2CCN(C)C(CF)C2)c2ccccc12 (centres unmarked) [Compound 29, 1-(1-(2-(fluoromethyl)-1-methylpiperidin-4-yl)ethyl)-N-((4-methoxy-6-methyl-2-oxo-1,2-dihydropyridin-3-yl)methyl)-2-methyl-1H-indole-3-carboxamide]	–	–	< 100	> 2000	–
COc1cc(C)[nH]c(=O)c1CNC(=O)c1c(C)n(C(C)C2CCN(CC(F)(F)F)C(C)C2)c2ccccc12 (centres unmarked) [Compound 47]	–	> 2000	100 to 1000	–	–
CCc1cc(C)[nH]c(=O)c1CNC(=O)c1c(C)n(C(C)C2CCNC(C(F)(F)F)C2)c2ccccc12 (centres unmarked) [Compound 5, N-((4-ethyl-6-methyl-2-oxo-1,2-dihydropyridin-3-yl)methyl)-2-methyl-1-(1-(2-(trifluoromethyl)piperidin-4-yl)ethyl)-1H-indole-3-carboxamide]	–	–	< 100	< 400	–
COc1cc(C)[nH]c(=O)c1CNC(=O)c1c(C)n(C(C)C2CCN(C)C(CO)C2)c2ccccc12 (centres unmarked) [Compound 30, 1-(1-(2-(hydroxymethyl)-1-methylpiperidin-4-yl)ethyl)-N-((4-methoxy-6-methyl-2-oxo-1,2-dihydropyridin-3-yl)methyl)-2-methyl-1H-indole-3-carboxamide]	–	–	< 100	> 2000	–
COc1cc(C)[nH]c(=O)c1CNC(=O)c1c(C)n(C(C)C2CCN(C)C(c3cccc(C(=O)O)c3)C2)c2ccccc12 (centres unmarked) [Compound 92]	–	400 to 2000	–	–	< 100
COc1cc(C)[nH]c(=O)c1CNC(=O)c1c(C)n(C(C)C2CCN(CC(F)F)C(C)C2)c2ccccc12 (centres unmarked) [Compound 44]	–	> 2000	< 100	–	–
COc1cc(C)[nH]c(=O)c1CNC(=O)c1c(C)n(C(C)C2CCN(C)C(c3cccc(C#N)c3)C2)c2ccccc12 (centres unmarked) [Compound 96]	–	400 to 2000	–	–	< 100
CCC1CC(C(C)n2c(C)c(C(=O)NCc3c(C)cc(C)[nH]c3=O)c3ccccc32)CCN1CC(F)F (centres unmarked) [Compound 68]	–	> 2000	–	–	< 100
